# Where “and” joins values, the source holds several entries; their conditions need not be identical. Equal values may be shown once. Entries after “also recorded” stand apart in the source; their conditions may differ. Read-outs that look alike come from different tables or passages of the source.
# Legend:
# HepG2 cells [1] = assay: MTT cell viability assay, HepG2; assay type: cell-based, Human; conditions: for IC50: HepG2
# Procedure: (§1) The viability of cancer cells was evaluated by MTT assay. Briefly, cells were inoculated in 96-well culture plates at the density of 1×10^4/well with complete medium containing 10% fetal calf serum in a final volume of 0.2 mL. Cells were incubated at 37°C for at least 24 hours to allow optimal attachment. When the cells reached 60% confluence, they were treated with Cisplatin, HCPT and emodin rhamnopyranosides derivatives in various concentrations, and incubated in a humidity-controlled 5%CO2 incubator at 37°C for 72 hours. Medium were exchanged once every 24 hours. Cell control group and blank group were set up in the same manner, with each group having six parallel wells. Cell survival was assessed by directly adding 22 μL of 5mg/mL MTT to 0.2 mL medium. After three hours, the formazan precipitate was dissolved in 200μL isopropanol per well, and completely mixed under room temperature. Afterwards, the optical density of each well was detected at 570 nm wavelength by iMark microplate reader (Bio-rad,USA). This experiment was repeated at least three times.
# [2] = system: HepG2 mitochondrial membrane potential (ΔΨm); assay: Mitochondrial membrane potential (Rhodamine123, flow cytometry); assay type: cell-based, Human; conditions: HepG2, 5.0μM
# Procedure: HepG2 cells were inoculated in 10cm diameter culture plates at a density of 5×10^5 cells, and allowed to attach at 37°C for 24 hours. Afterwards, cells were treated with 5.0μM EM-d-Rha for 0, 24h, 48h and 72h respectively. Cells were incubated in a humidified incubator supplied with 5% CO2 at 37°C for 72 hours. Medium were exchanged once every 24 hours. The harvested cells of each sample were suspended in 500μL PBS before adding 5 μL Rhodamine123. Then samples were incubated at 37°C in the dark for 15 min. Cells were again collected by centrifugation at 300×g for 5 minutes and the supernatant was discarded. The cell pellets were washed twice with 4°C PBS. Finally cells of all samples were resuspended in 500μL PBS. Before performing assay, adjusting excitation wavelength and emission wavelength to 480nm, 520nm respectively, the ΔΨm changes of HepG2 mitochondrial were measured with a flow cytometer (BD FACSCalibur, BD Biosciences, US). The experiment was repeated at least three times.
# HepG2 cells [3] = assay: DNA ladder assay; assay type: cell-based, Human; conditions: HepG2, 2.5μM, 5.0μM and 10.0μM
# Procedure: DNA ladder formation is an important criterion to determine cells apoptosis. To confirm the apoptosis induction effect, the analysis of DNA fragmentation was conducted. HepG2 cells in logarithmic growth phase were inoculated in 10cm diameter culture plates at a density of 5×10^5 cells with 12 mL complete medium containing 10% fetal calf serum, and allowed to attach at 37°C for 24 hours. Afterwards, cells were treated with EM-d-Rha and Cisplatin at a specific concentration. Cells were cultured and harvested as described previously. Finally, DNA of all samples was extracted using the apoptosis DNA ladder detection kit following the manufacturer’s instructions. The DNA fragmentation was assayed by electrophoresis on a 1.5% agarose gel containing […] ethidium bromide (EtBr) at 5V/cm for 2.5hours and photographed under ultraviolet. The size of the DNA fragmentation was compared with the marker (molecular weight standard).
# HUVEC = assay: MTT cell viability assay, HUVEC; assay type: cell-based; conditions: Homo sapiens, MTT at 72h, n=3, mean±S.E.M, read-out: IC50 for EM-d-Rha, HUVEC
# Procedure: as §1
# K562 cells = assay: MTT cell viability assay, K562; assay type: cell-based; conditions: Homo sapiens
# Procedure: as §1
# HeLa cells = assay: MTT cell viability assay, HeLa; assay type: cell-based, Human
# Procedure: as §1
# HepG2 cells [4] = assay: Morphological analysis (bright-field microscopy); assay type: cell-based, Human; conditions: HepG2, 0.1-62.5μM, 48 h, dose dependent
# Procedure: For morphological observation, HepG2 cells in logarithmic growth phase were seeded in a 96-well plate at the density of 1×10^4/well with 0.2 mL complete medium containing 10% fetal calf serum. Cells were allowed to attach at 37°C for 24 hours. Then cells were treated with EM-d-Rha and HCPT at a specific concentration. Each group has six parallel wells. […] Medium were exchanged once every 24 hours.
# L02 normal liver cells = assay: MTT cell viability assay, L02; assay type: cell-based; conditions: Homo sapiens; MTT at 72h, n=3, mean±S.E.M; read-out: IC50 for EM-d-Rha, L02
# Procedure: as §1
# OVCAR-3 cells = assay: Flow cytometry apoptosis analysis (Annexin V/7-AAD), OVCAR-3; assay type: cell-based, Human; conditions: 48h (Fig 8 legend: 72h); for Late apoptosis: control 4.87±1.42; for Early apoptosis: control 13.01±5.81; for Living cell: control 81.36±8.14
# MCF-7 cells = assay: MTT cell viability assay, MCF-7; assay type: cell-based; conditions: Homo sapiens, MCF7
# Procedure: as §1
# [5] = OVCAR-3, 10μM, listed as EM-d-Rha
smiles,measurement,setting,value
"CC(=O)O[C@@H]1[C@@H](O[C@@H]2O[C@@H](C)[C@H](O)[C@@H](OC(C)=O)[C@H]2OC(C)=O)[C@H](C)O[C@@H](Oc2cc(O)c3c(c2)C(=O)c2cc(C)cc(O)c2C3=O)[C@@H]1OC(C)=O [S-8, 3-(2”,3”-Di-O-acetyl-α-L-rhamnopyranosyl-(1→4)-2’,3’-di-O-acetyl-α-L-rhamnopyranosyl)-emodin]",Activity against HepG2 cells relative to comparators (dose-response curves),"HepG2 cells [1]; HepG2 treated for three day, Fig 3, listed as EM-d-Rha",stronger in comparison to that of emodin; also recorded: inferior as compared to that of Cisplatin and HCPT
same,IC50,"HepG2 cells [1]; Homo sapiens, MTT at 72h, n=3, mean±S.E.M, read-out: IC50 for EM-d-Rha, HepG2",1.81 ± 0.44 µM
same,IC50,"HepG2 cells [1]; Homo sapiens, MTT, 72 hours, read-out: IC50 values, HepG2",0.65 µg/mL
same,inhibition at 0.1 µM,"HepG2 cells [1]; Homo sapiens, HepG2, 0.1μM, MTT 72h, read-out: The inhibition rate of EM-d-Rha",4.6 ± 5.04%
same,inhibition at 0.5 µM,"HepG2 cells [1]; Homo sapiens, HepG2, 0.5μM, MTT 72h, read-out: The inhibition rate of EM-d-Rha",24.3 ± 6.54%
same,inhibition at 2.5 µM,"HepG2 cells [1]; Homo sapiens, HepG2, 2.5μM, MTT 72h, read-out: The inhibition rate of EM-d-Rha",70.7 ± 3.54%
same,inhibition at 12.5 µM,"HepG2 cells [1]; Homo sapiens, HepG2, 12.5μM, MTT 72h, read-out: The inhibition rate of EM-d-Rha",90.97 ± 0.72%
same,inhibition at 62.5 µM,"HepG2 cells [1]; Homo sapiens, HepG2, 62.5μM, MTT 72h, read-out: The inhibition rate of EM-d-Rha",91.46 ± 0.46%
same,"Decrease of IC50 compared to the IC50 of emodin, HepG2",HepG2 cells [1]; from Table 1,19.68 fold
same,Percentage of ΔΨm (Vs. control group),[2]; 24 h,82.22±5.97 %
same,Percentage of ΔΨm (Vs. control group),[2]; 48 h,53.21±9.71 %
same,Percentage of ΔΨm (Vs. control group),"[2]; 72 h, listed as EM-d-Rha",31.77±2.84%
same,DNA fragmentation (agarose gel electrophoresis),HepG2 cells [3],typical ladder or fragmentation shape
same,IC50,HUVEC,18.7 ± 3.9 µM
same,IC50,"K562 cells; K562, MTT at 72h, n=3, mean±S.E.M, read-out: IC50 for EM-d-Rha, K562",2.8 ± 0.11 µM
same,inhibition at 0.1 µM,"K562 cells; K562, 0.1μM, MTT 72h, read-out: The inhibition rate of EM-d-Rha",0%
same,inhibition at 0.5 µM,"K562 cells; K562, 0.5μM, MTT 72h, read-out: The inhibition rate of EM-d-Rha",15.1 ± 1.13%
same,inhibition at 2.5 µM,"K562 cells; K562, 2.5μM, MTT 72h, read-out: The inhibition rate of EM-d-Rha",45.86 ± 0.11%
same,inhibition at 12.5 µM,"K562 cells; K562, 12.5μM, MTT 72h, read-out: The inhibition rate of EM-d-Rha",78.74 ± 0.01%
same,inhibition at 62.5 µM,"K562 cells; K562, 62.5μM, MTT 72h, read-out: The inhibition rate of EM-d-Rha",80.64 ± 0.03%
same,IC50,"HeLa cells; Homo sapiens, HeLa, MTT at 72h, n=3, mean±S.E.M, read-out: IC50 for EM-d-Rha, HeLa",1.51 ± 0.31 µM
same,IC50,"HeLa cells; Homo sapiens, HeLa, MTT, 72 hours, read-out: IC50 values, HeLa",1.15 µg/mL
same,inhibition at 0.1 µM,"HeLa cells; Homo sapiens, HeLa, 0.1μM, MTT 72h, read-out: The inhibition rate of EM-d-Rha",14.8 ± 5.61%
same,inhibition at 0.5 µM,"HeLa cells; Homo sapiens, HeLa, 0.5μM, MTT 72h, read-out: The inhibition rate of EM-d-Rha",37.6 ± 2.81%
same,inhibition at 2.5 µM,"HeLa cells; Homo sapiens, HeLa, 2.5μM, MTT 72h, read-out: The inhibition rate of EM-d-Rha",49.2 ± 3.78%
same,inhibition at 12.5 µM,"HeLa cells; Homo sapiens, HeLa, 12.5μM, MTT 72h, read-out: The inhibition rate of EM-d-Rha",69.1 ± 3.36%
same,inhibition at 62.5 µM,"HeLa cells; Homo sapiens, HeLa, 62.5μM, MTT 72h, read-out: The inhibition rate of EM-d-Rha",89.74 ± 0.63%
same,"Decrease of IC50 compared to the IC50 of emodin, HeLa",HeLa cells; from Table 1,10.56 fold
same,Cell morphology (bright-field),HepG2 cells [4],morphological changes of apoptosis such as reduction in cell volume and losing cell-cell contacts
same,IC50,L02 normal liver cells,19.7 ± 1.7 µM
same,Late apoptosis,"OVCAR-3 cells; OVCAR-3, 2.5μM",3.30±2.95%
same,Early apoptosis,"OVCAR-3 cells; OVCAR-3, 2.5μM",70.60±23.06 %
same,Living cell,"OVCAR-3 cells; OVCAR-3, 2.5μM",25.82±20.14 %
same,Late apoptosis,"OVCAR-3 cells; OVCAR-3, 5μM",0.81±0.05 %
same,Early apoptosis,"OVCAR-3 cells; OVCAR-3, 5μM",90.52±0.20 %
same,Living cell,"OVCAR-3 cells; OVCAR-3, 5μM",8.60±0.19 %
same,Late apoptosis,"OVCAR-3 cells; OVCAR-3, 10μM",0.35±0.06 %
same,Early apoptosis,OVCAR-3 cells; [5],95.09% and 95.09±1.03 %
same,Living cell,OVCAR-3 cells; [5],4.53% and 4.53±0.99 %
same,inhibition at 0.1 µM,"MCF-7 cells; MCF-7, 0.1μM, MTT 72h, read-out: The inhibition rate of EM-d-Rha",16.8 ± 1.4%
same,inhibition at 0.5 µM,"MCF-7 cells; MCF-7, 0.5μM, MTT 72h, read-out: The inhibition rate of EM-d-Rha",20.1 ± 3.83%
same,inhibition at 2.5 µM,"MCF-7 cells; MCF-7, 2.5μM, MTT 72h, read-out: The inhibition rate of EM-d-Rha",41.4 ± 6.53%
same,inhibition at 12.5 µM,"MCF-7 cells; MCF-7, 12.5μM, MTT 72h, read-out: The inhibition rate of EM-d-Rha",62.7 ± 6.81%
same,inhibition at 62.5 µM,"MCF-7 cells; MCF-7, 62.5μM, MTT 72h, read-out: The inhibition rate of EM-d-Rha",77.1 ± 5.1%
same,IC50,"MCF-7 cells; MTT at 72h, n=3, mean±S.E.M, read-out: IC50 for EM-d-Rha, MCF-7",8.56 ± 1.04 µM

# — PMC4684281, “Antitumor Effects and Mechanism of Novel Emodin Rhamnoside Derivatives against Human Cancer Cells In Vitro” (PLoS ONE, 2015)
